Assay results reported in patent US20090253634A1, “Methods and Compositions for the Treatment of Gastrointestinal Disorders” (MICROBIA, INC., priority 2005, published 2009).
Bridge positions count the residues as written; N and C are the ends. Peptide text beside a SMILES is read from it.

Experiments:
[1] = tested on: abdominal response to colorectal distension; assay: TNBS visceral hypersensitivity rat model (colorectal distension, EMG); assay type: in vivo, Wistar rats; settings: 0.3 μg/kg and 3 μg/kg; given one hour before CRD
Protocol: Male Wistar rats (220-250 g) were premedicated with 0.5 mg/kg of acepromazine injected intraperitoneally (IP) and anesthetized by intramuscular administration of 100 mg/kg of ketamine. Pairs of nichrome wire electrodes (60 cm in length and 80 μm in diameter) were implanted in the striated muscle of the abdomen, 2 cm laterally from the white line. The free ends of electrodes were exteriorized on the back of the neck and protected by a plastic tube attached to the skin. Electromyographic (EMG) recordings were started 5 days after surgery. Electrical activity of abdominal striated muscle was recorded with an electroencephalograph machine (Mini VIII, Alvar, Paris, France) using a short time constant (0.03 sec.) to remove low-frequency signals (<3 Hz).
Ten days post surgical implantation, trinitrobenzenesulphonic acid ([…]) was administered to induce rectal inflammation. TNBS (80 mg kg^−1 in 0.3 ml 50% ethanol) was administered intrarectally through a silicone rubber catheter introduced at 3 cm from the anus under light diethyl-ether anesthesia, as described (Morteau et al. 1994 Dig Dis Sci 39:1239). […] Evaluation of rectal sensitivity, as measured by EMG, was performed before (1-2 days) and 3 days following rectal instillation of TNBS.
The number of spike bursts that corresponds to abdominal contractions was determined per 5 min periods. […]

[2] = target: T1, aminopeptidase (Sus scrofa, UniProt P15145); assay: in vitro proteolytic stability: aminopeptidase; assay type: in vitro ADME; settings: 37° C., up to 24 h
T1 construct: purchased Roche 102768
T1 sequence (P15145 1-963): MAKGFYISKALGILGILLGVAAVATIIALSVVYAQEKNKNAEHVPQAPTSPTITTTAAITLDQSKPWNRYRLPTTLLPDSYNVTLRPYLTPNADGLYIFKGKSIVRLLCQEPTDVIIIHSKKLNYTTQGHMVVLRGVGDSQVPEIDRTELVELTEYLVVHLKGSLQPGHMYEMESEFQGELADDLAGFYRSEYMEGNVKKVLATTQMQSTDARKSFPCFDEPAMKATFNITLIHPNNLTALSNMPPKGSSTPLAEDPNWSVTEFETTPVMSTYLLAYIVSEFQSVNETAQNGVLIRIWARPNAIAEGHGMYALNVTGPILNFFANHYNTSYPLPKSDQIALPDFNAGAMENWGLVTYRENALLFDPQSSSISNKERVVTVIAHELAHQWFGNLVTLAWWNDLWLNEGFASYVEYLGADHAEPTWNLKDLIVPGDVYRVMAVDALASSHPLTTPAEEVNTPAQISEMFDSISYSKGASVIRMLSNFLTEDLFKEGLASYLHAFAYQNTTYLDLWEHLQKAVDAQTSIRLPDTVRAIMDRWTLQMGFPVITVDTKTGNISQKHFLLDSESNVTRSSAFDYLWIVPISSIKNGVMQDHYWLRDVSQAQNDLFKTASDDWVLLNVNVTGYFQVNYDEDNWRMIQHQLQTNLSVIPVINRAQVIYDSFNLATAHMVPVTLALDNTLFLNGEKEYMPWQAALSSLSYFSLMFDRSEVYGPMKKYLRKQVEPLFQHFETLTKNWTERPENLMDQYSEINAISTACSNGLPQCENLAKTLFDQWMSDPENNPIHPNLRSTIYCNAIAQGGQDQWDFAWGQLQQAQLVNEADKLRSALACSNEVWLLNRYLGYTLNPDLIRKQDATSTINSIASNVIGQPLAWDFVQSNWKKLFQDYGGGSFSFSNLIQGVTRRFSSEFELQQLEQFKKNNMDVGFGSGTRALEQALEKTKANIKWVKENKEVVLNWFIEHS
Protocol: All samples were analyzed by LC/MS

[3] = tested on: bowel habits; assay: single oral dose study of bowel habits in humans; assay type: in vivo
Protocol: Single doses of 30, 100, 300, 1000 or 3000 μg of chemically synthesized SEQ ID NO:3 were given to 30 healthy males and postmenopausal females. At each dose level (100 μg was done twice) SEQ ID NO:3 or placebo (vehicle) was administered orally in 5.0 mL 50 mM phosphate buffer (pH 6.0) plus 3×20 mL water rinses and 175 mL water after at least a 10-hour fast. In each dosing group, subjects were randomized to receive either placebo (1 subject) or SEQ ID NO:3 (3-4 subjects). Bowel habits (including Bristol Stool Form Scale score (BSFS; FIG. 14a), stool frequency, and stool weight) were evaluated for each collected bowel movement 48 hours prior to dose and up to approximately 48 hours postdose.

SMILES: C[C@@H]1NC(=O)[C@@H]2CCCN2C(=O)[C@H](CC(N)=O)NC(=O)[C@@H]2CSSC[C@H](N)C(=O)N[C@H]3CSSC[C@H](NC1=O)C(=O)N[C@@H]([C@@H](C)O)C(=O)NCC(=O)N[C@H](C(=O)N[C@@H](Cc1ccc(O)cc1)C(=O)O)CSSC[C@H](NC(=O)[C@H](Cc1ccc(O)cc1)NC(=O)[C@H](CCC(=O)O)NC3=O)C(=O)N2 [SEQ ID NO:3] (H-CCEYCCNPACTGCY-OH; disulfide 1-6, 2-10, 5-13; N-terminus and C-terminus assumed)
- abdominal response to colorectal distension after TNBS [1]: Significant decreases in abdominal response
- Cleavage of SEQ ID NO: 3 by proteolytic substance [2]: not detectable
- percent of subjects with a 2-point or greater increase in BSFS score ([3]; 1000 μg dose group, mean pre-dose compared to peak 48 hours post-dose): highest percent of subjects
- BSFS post-dose scores, relation to dose ([3]; single oral dose 30-3000 μg): Higher BSFS post-dose scores correlated with a higher dose
- maximum BSFS (Bristol Stool Form Scale) score ([3]; single oral dose 30-3000 μg, healthy males and postmenopausal females): increase in maximum BSFS score
